Measurements published in patent US20220348572A1, “BRIDGED HETEROCYCLYL-SUBSTITUTED PYRIMIDINE COMPOUND, PREPARATION METHOD THEREFOR, AND PHARMACEUTICAL USE THEREOF” (The National Institutes of Pharmaceutical R&D Co., Ltd., priority 2019, published 2022).

Target: T1, JAK1 kinase (Homo sapiens, UniProt P23458)
T1 construct: purchased Invitrogen PV4744
Test: In vitro inhibitory activity on JAK1 kinase (ADP-Glo Kinase Assay)
Format: biochemical
Conditions: JAK1 kinase 4 nM, 1 mM ATP
Description: Test Example 1: Determination of In Vitro Inhibitory Activity of the Compounds of the Present Invention on JAK1 Kinase Experimental materials: JAK1 kinase (Invitrogen, PV4744), ATP (Promega, V915B), ADP-Glo Kinase Assay (Promega, V9101), IRS1 (Signalchem, 140-58-1000). Sample preparation: The compounds of the present invention and the control product were dissolved in DMSO solvent respectively to formulate into 10 mM initial liquid. The maximum concentration of the compound was 10 μM, 3-fold dilution, 10 concentration gradients, and duplicate wells for each concentration gradient. Experimental processs: 0.1 μL of the compound to be tested was transferred into a 384 reaction plate (PE, 6007290) via Echo and centrifuged at 1000 rpm/min for 1 min. 5 μL JAK1 kinase (final concentration of 4 nM) was transferred into the 384 reaction plate, which was then centrifuged at 1000 rpm/min for 1 min, and incubated at 25° C. for 15 min. 5 μL substrate mixture (1 mM ATP, IRS1 0.05 mg/ml, kinase buffer solution) was transferred into the 384 reaction plate, which was then centrifuged at 1000 rpm/min for 1 min, and incubated at 25° C. for 60 min. 10 μL ADP-Glo was transferred into the 384 reaction plate, which was then centrifuged at 1000 rpm/min for 1 min, and incubated at 25° C. for 40 min. 20 μL test solution was transferred into the 384 reaction plate, which was then centrifuged at 1000 rpm/min for 1 min and incubated at 25° C. for 40 min. RLU (Relative luminescence unit) signal was read by using an Envision multifunctional plate reader. The signal intensity was used to characterize the degree of the kinase activity. […] IC50 value of 0-100 nM is shown as A, IC50 value of 100-300 nM is shown as B, IC50 value of 300-1000 nM is shown as C, and IC50 value which is greater than 1000 nM is shown as D. NT means not tested.

T1 sequence (P23458 866-1154 limits assumed): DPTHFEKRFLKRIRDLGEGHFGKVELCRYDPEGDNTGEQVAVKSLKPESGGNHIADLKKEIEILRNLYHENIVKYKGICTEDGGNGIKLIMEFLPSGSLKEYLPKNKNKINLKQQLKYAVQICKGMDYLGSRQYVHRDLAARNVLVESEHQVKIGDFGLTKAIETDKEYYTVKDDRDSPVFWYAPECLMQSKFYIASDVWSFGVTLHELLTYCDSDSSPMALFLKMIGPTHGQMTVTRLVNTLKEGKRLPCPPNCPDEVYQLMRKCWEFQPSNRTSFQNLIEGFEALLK

Row | SMILES | IC50
1 | Cn1cc(Nc2nccc(C3=CC4CCC(C3)N4S(=O)(=O)NCC#N)n2)cn1 (stereo not drawn) [Compound 4, N-(cyanomethyl)-3-(2-((1-methyl-1H-pyrazol-4-yl)amino)pyrimidin-4-yl)-8-azabicyclo[3.2.1]oct-2-ene-8-sulfonamide] | > 1000 nM
2 | Cn1cc(Nc2ncc(Cl)c(C3=CC4CCC(C3)N4C(=O)[C@@H]3CC3(F)F)n2)cn1 (stereo partly drawn) [Compound 23, (3-(5-chloro-2-((1-methyl-1H-pyrazol-4-yl)amino)pyrimidin-4-yl)-8-azabicyclo[3.2.1]oct-2-en-8-yl)((S)-2,2-difluorocyclopropyl)methanone] | < 100 nM
3 | CC(C)(O)Cn1cc(Nc2nccc(C3=CC4CCC(C3)N4C(=O)[C@@H]3CC3(F)F)n2)cn1 (stereo partly drawn) [Compound 41, ((S)-2,2-Difluorocyclopropyl)(3-(2-((1-(2-hydroxy-2-methylpropyl)-1H-pyrazol-4-yl)amino)pyrimidin-4-yl)-8-azabicyclo[3.2.1]oct-2-en-8-yl)methanone] | 100 to 300 nM
4 | O=C([C@@H]1CC1(F)F)N1C2C=C(c3ccnc(Nc4cnn(CCO)c4)n3)CC1CC2 (stereo partly drawn) [Compound 40, ((S)-2,2-difluorocyclopropyl)(3-(2-((1-(2-hydroxyethyl)-1H-pyrazol-4-yl)amino)pyrimidin-4-yl)-8-azabicyclo[3.2.1]oct-2-en-8-yl)methanone] | 100 to 300 nM
5 | Cc1cnc(Nc2cnn(C3COC3)c2)nc1C1=CC2CCC(C1)N2C(=O)NCC(F)(F)F (stereo not drawn) [Compound 30, 3-(5-Methyl-2-((1-(oxetan-3-yl)-1H-pyrazol-4-yl)amino)pyrimidin-4-yl)-N-(2,2,2-trifluoroethyl)-8-azabicyclo[3.2.1]oct-2-ene-8-carboxamide] | < 100 nM
6 | Cn1cc(Nc2nccc(C3=CC4CCC(C3)N4CC3(C)COC3)n2)cn1 (stereo not drawn) [Compound 87, N-(1-methyl-1H-pyrazol-4-yl)-4-(8-((3-methyloxetan-3-yl)methyl)-8-azabicyclo[3.2.1]oct-2-en-3-yl)pyrimidin-2-amine] | > 1000 nM
7 | Cn1cc(Nc2nccc(C3=CC4CCC(C3)N4C(=O)N3CC[C@@H](C#N)C3)n2)cn1 (stereo partly drawn) [Compound 7, (R)-1-(3-(2-((1-methyl-1H-pyrazol-4-yl)amino)pyrimidin-4-yl)-8-azabicyclo[3.2.1]oct-2-ene-8-carbonyl)pyrrolidine-3-nitrile] | > 1000 nM
8 | Cn1cc(Nc2ncc(C(F)(F)F)c(C3=CC4CCC(C3)N4C(=O)NCC(F)(F)F)n2)cn1 (stereo not drawn) [Compound 25, 3-(2-((1-Methyl-1H-pyrazol-4-yl)amino)-5-(trifluoromethyl)pyrimidin-4-yl)-N-(2,2,2-trifluoroethyl)-8-azabicyclo[3.2.1]oct-2-ene-8-carboxamide] | 300 to 1000 nM
9 | Cn1cc(Nc2nccc(C3=CC4CCC(C3)N4C(=O)C34CC(C3)C4)n2)cn1 (stereo not drawn) [Compound 72, bicyclo[1.1.1]pentan-1-yl(3-(2-((1-methyl-1H-pyrazol-4-yl)amino)pyrimidin-4-yl)-8-azabicyclo[3.2.1]oct-2-en-8-yl)methanone] | > 1000 nM
10 | Cc1cnc(Nc2cnn(C)c2)nc1C1=C[C@@H]2CC[C@H](C1)N2C(=O)[C@@H]1CC1(F)F [Compound 22-a, ((S)-2,2-difluorocyclopropyl)((1S,5R)-3-(5-methyl-2-((1-methyl-1H-pyrazol-4-yl)amino)pyrimidin-4-yl)-8-azabicyclo[3.2.1]oct-2-en-8-yl)methanone] | 100 to 300 nM
11 | Cc1cnc(Nc2cnn(C)c2Cl)nc1C1=CC2CCC(C1)N2C(=O)NCC(F)(F)F (stereo not drawn) [Compound 32, 3-(2-((5-chloro-1-methyl-1H-pyrazol-4-yl)amino)-5-methylpyrimidin-4-yl)-N-(2,2,2-trifluoroethyl)-8-azabicyclo[3.2.1]oct-2-ene-8-carboxamide] | 100 to 300 nM
12 | Cn1cc(Nc2nccc(C3=CC4CCC(C3)N4C3(CC#N)CN(C(=O)NCC(F)(F)F)C3)n2)cn1 (stereo not drawn) [Compound 86, 3-(cyanomethyl)-3-(3-(2-((1-methyl-1H-pyrazol-4-yl)amino)pyrimidin-4-yl)-8-azabicyclo[3.2.1]oct-2-en-8-yl)-N-(2,2,2-trifluoroethyl)azetidine-1-carboxamide] | > 1000 nM
13 | Cn1cc(Nc2nccc(C3=CC4CCC(C3)N4C(=O)C3CC3c3ccccc3)n2)cn1 (stereo not drawn) [Compound 59] | 300 to 1000 nM
14 | O=C([C@@H]1CC1(F)F)N1C2C=C(c3ccnc(Nc4cnn(C5CC5)c4)n3)CC1CC2 (stereo partly drawn) [Compound 36, (3-(2-((1-cyclopropyl-1H-pyrazol-4-yl)amino)pyrimidin-4-yl)-8-azabicyclo[3.2.1]oct-2-en-8-yl)((S)-2,2-difluorocyclopropyl)methanone] | 100 to 300 nM
15 | NC(=O)Cn1cc(Nc2nccc(C3=CC4CCC(C3)N4C(=O)[C@@H]3CC3(F)F)n2)cn1 (stereo partly drawn) [Compound 38, 2-(4-((4-(8-((S)-2,2-Difluorocyclopropane-1-formyl)-8-azabicyclo[3.2.1]oct-2-en-3-yl)pyrimidin-2-yl)amino)-1H-pyrazol-1-yl)acetamide] | < 100 nM
16 | Cn1cc(Nc2nccc(C3=CC4CCC(C3)N4S(=O)(=O)CCC(F)(F)F)n2)cn1 (stereo not drawn) [Compound 6, N-(1-methyl-1H-pyrazol-4-yl)-4-(8-((3,3,3-trifluoropropyl)sulfonyl)-8-azabicyclo[3.2.1]oct-2-en-3-yl)pyrimidin-2-amine] | > 1000 nM
17 | Cc1cnc(Nc2cnn(C)c2)nc1C1=C[C@H]2CC[C@@H](C1)N2C(=O)[C@@H]1CC1(F)F [Compound 22-b, ((S)-2,2-difluorocyclopropyl)((1R,5S)-3-(5-methyl-2-((1-methyl-1H-pyrazol-4-yl)amino)pyrimidin-4-yl)-8-azabicyclo[3.2.1]oct-2-en-8-yl)methanone] | < 100 nM

More lines, now with the values ahead:

Row | IC50 | SMILES
18 | 300 to 1000 nM | C[C@@H](NC(=O)N1C2C=C(c3ccnc(Nc4cnn(C)c4)n3)CC1CC2)C(F)(F)F (stereo partly drawn) [Compound 56, 3-(2-((1-Methyl-1H-pyrazol-4-yl)amino)pyrimidin-4-yl)-N-((R)-1,1,1-trifluoropropane-2-yl)-8-azabicyclo[3.2.1]oct-2-ene-8-carboxamide]
19 | 100 to 300 nM | Cn1cc(Nc2nccc(C3=CC4CCC(C3)N4C(=O)NC3CC3(F)F)n2)cn1 (stereo not drawn) [Compound 14, N-(2,2-difluorocyclopropyl)-3-(2-((1-methyl-1H-pyrazol-4-yl)amino)pyrimidin-4-yl)-8-azabicyclo[3.2.1]oct-2-ene-8-carboxamide]
20 | < 100 nM | C[C@H](NC(=O)N1C2C=C(c3ccnc(Nc4cnn(C)c4)n3)CC1CC2)C(F)(F)F (stereo partly drawn) [Compound 55, 3-(2-((1-Methyl-1H-pyrazol-4-yl)amino)pyrimidin-4-yl)-N-((S)-1,1,1-trifluoropropane-2-yl)-8-azabicyclo[3.2.1]oct-2-ene-8-carboxamide]
21 | 100 to 300 nM | CC(C#N)C(=O)N1C2C=C(c3ccnc(Nc4cnn(C)c4)n3)CC1CC2 (stereo not drawn) [Compound 62, 2-methyl-3-(3-(2-((1-methyl-1H-pyrazol-4-yl)amino)pyrimidin-4-yl)-8-azabicyclo[3.2.1]oct-2-en-8-yl)-3-oxopropionitrile]
22 | < 100 nM | Cn1cc(Nc2nccc(C3=CC4CCC(C3)N4C(=O)NCC(F)F)n2)cn1 (stereo not drawn) [Compound 44, N-(2,2-difluoroethyl)-3-(2-((1-methyl-1H-pyrazol-4-yl)amino)pyrimidin-4-yl)-8-azabicyclo[3.2.1]oct-2-ene-8-carboxamide]
23 | 100 to 300 nM | Cn1cc(Nc2nccc(C3=CC4CCC(C3)N4C(=O)C3CC3(F)Cl)n2)cn1 (stereo not drawn) [Compound 50, (2-chloro-2-fluorocyclopropyl)(3-(2-((1-methyl-1H-pyrazol-4-yl)amino)pyrimidin-4-yl)-8-azabicyclo[3.2.1]oct-2-en-8-yl)methanone]
24 | > 1000 nM | Cn1cc(Nc2nccc(C3=CC4CCC(C3)N4C(=O)C3(C)CC3(F)F)n2)cn1 (stereo not drawn) [Compound 48, (2,2-difluoro-1-methylcyclopropyl)(3-(2-((1-methyl-1H-pyrazol-4-yl)amino)pyrimidin-4-yl)-8-azabicyclo[3.2.1]oct-2-en-8-yl)methanone]
25 | < 100 nM | Cn1cc(Nc2nccc(C3=C[C@H]4CC[C@@H](C3)N4C(=O)NCC(F)(F)F)n2)cn1 [Compound 3-b, (1R,5S)-3-(2-((1-methyl-1H-pyrazol-4-yl)amino)pyrimidin-4-yl)-N-(2,2,2-trifluoroethyl)-8-azabicyclo[3.2.1]oct-2-ene-8-carboxamide]
26 | 300 to 1000 nM | Cn1cc(Nc2nccc(C3=CC4CCC(C3)N4C(=O)N3CCC(F)(F)C3)n2)cn1 (stereo not drawn) [Compound 8, (3,3-difluoropyrrolidin-1-yl)(3-(2-((1-methyl-1H-pyrazol-4-yl)amino)pyrimidin-4-yl)-8-azabicyclo[3.2.1]oct-2-en-8-yl)methanone]
27 | 100 to 300 nM | Cn1cc(Nc2nccc(C3=CC4CCC(C3)N4C(=O)CC(F)(F)F)n2)cn1 (stereo not drawn) [Compound 65, 3,3,3-trifluoro-1-(3-(2-((1-methyl-1H-pyrazol-4-yl)amino)pyrimidin-4-yl)-8-azabicyclo[3.2.1]oct-2-en-8-yl)-1-acetone]
